Measurements as given in PubChem BioAssay AID1918939 (Molecular Pharmacology Branch, DTP, NCI, 2023).

Tested on: 653999-131-R-J2-PDC complex spheroid viability
Test: Anticancer human tumor 653999-131-R-J2-PDC patient-derived lung adenocarcinoma cell line growth inhibition
Details: for IC50: curve of first compound; for viability, T/C: stronger effect = lower value
Source text: Multicellular complex tumor spheroid response to LSD1 Inhibitor Iadademstat in combination with a variety of drugs and investigational agents in selected tumor cell lines
The current study was undertaken to assess response to LSD1 inhibitors in combination with standard-of-care drugs and investigational agents in solid tumor complex spheroid models as well as in the K-562 leukemia. Complex spheroids include a stromal component modeled by human endothelial cells (HUVEC) and fibroblasts modeled by human mesenchymal stem cells (MSCs). The concentration ranges selected for each drug and investigational agent were based upon clinically achievable concentrations if the clinical Cmax of the agent was known.
Compounds. The drugs and investigational agents used in this study are listed on Table 1. All of the agents used, including staurosporine (NSC755774) and gemcitabine (NSC613327), were obtained from the Developmental Therapeutics Program, NCI. FDA-approved anticancer drugs are available from the NCI at http://dtp.nci.nih.gov/branches/dscb/oncology_drugset_explanation.html. Drugs and investigational agents were >95% pure by proton nuclear magnetic resonance (NMR) and liquid chromatography/mass spectrometry (LC/MS). Stock solutions were prepared at 400x in DMSO, stored at -70 degrees C, and diluted in fresh medium prior to their use. The final concentration of DMSO in cell culture wells never exceeded 0.25% (v/v). The FDA-approved anticancer drug set is available from the Developmental Therapeutics Program at https://dtp.cancer.gov/organization/dscb/obtaining/available_plates.htm. All drugs and investigational agents were tested over a range starting from a high concentration at or near the clinical Cmax and decreasing in half-log increments. If the clinical Cmax for an agent had not been determined, the highest concentration tested was 10 microM.
Cell Lines. The patient-derived cancer cell (PDC) lines: 292921-168-R-J2-PDC, K24384-001-R-PDC, and 521955-158-R2-J5-PDC pancreatic carcinomas, 556581-035-R-J1 ovarian carcinoma, 324938-238-R-J1-PDC, 855422-203-R-J1-PDC and 883617-216-R-J1-PDC urothelial bladder carcinomas, 743489-274-T-PDC renal cell carcinoma, 138582-R-J1 Merkel cell tumor, K60290-347-R-J1 and K57222-313-R-J1-PDC glioblastomas, 653999-131-R-J2-PDC, LG0703-F948-PDC, and 349418-098-R-PDC non-small cell lung carcinomas, 885512-296-R-J2-PDC, 171881-019-R-J1-PDC breast carcinomas and 186277-243-T-J2-PDC and 233499-124-R-J2-PDC colon carcinomas were obtained from the NCI Patient-Derived Models Repository (PDMR, https://pdmr.cancer.gov). The established cell lines NCI/ADR-RES (RRID:CVCL_14520 and OVCAR-5 (RRID:CVCL_1628) ovarian carcinomas, 786-O (RRID:CVCL_1051) and A498 (RRID:CVCL_A498) renal cell carcinoma, NCI-H211 (ATCC, cat. CRL-5824; RRID:CVCL_1529), NCI-H196 (ATCC, cat. CRL-5823, RRID:CVCL_1509), SW 1271 (ATCC, cat. CRL-2177, RRID:CVCL_1716) and NCI-H1876 (ATCC, cat. CRL-5902, RRID:CVCL_1503) small cell lung carcinomas, MDA-MB-231 (RRID:CVCL_0062) and MDA-MB-468 (RRID:CVCL_0419)breast carcinomas (10-12). Pooled donor human umbilical vein endothelial cells (HUVEC, Lonza, cat. CC-2519) and human mesenchymal stem cells (hMSC, Lonza, cat. PT-2501) were purchased from Lonza (Walkersville, MD).
Cell Culture. All cells were maintained in an incubator at 37 degrees C and 5% CO2 with 95% humidity. The PDC lines were cultured according to standard operating procedures established by the NCI PDMR (https://pdmr.cancer.gov). Briefly all PDCs were thawed and cultured in Matrigel-coated flasks prepared with a working solution of 1X Ham's F-12 nutrient mix, without supplementation (Invitrogen, Waltham, MA, cat. 11765054), 100 U/mL penicillin-streptomycin (Invitrogen, cat. 15140122), and 2.5% Matrigel (Corning Inc., Corning, NY, cat. 354248) for the first three passages. […]

[1] = second compound 0.1 µM, first compound 0.00316 µM
[2] = second compound 0.1 µM, first compound 0.01 µM
[3] = second compound 0.1 µM, first compound 0.0316 µM
[4] = second compound 0.1 µM, first compound 0.1 µM
[5] = second compound 0.316 µM, first compound 0.00316 µM
[6] = second compound 0.316 µM, first compound 0.01 µM
[7] = second compound 0.316 µM, first compound 0.0316 µM
[8] = second compound 0.316 µM, first compound 0.1 µM
[9] = second compound 1 µM, first compound 0.00316 µM
[10] = second compound 1 µM, first compound 0.01 µM
[11] = second compound 1 µM, first compound 0.0316 µM
[12] = second compound 1 µM, first compound 0.1 µM
[13] = second compound 3.16 µM, first compound 0.00316 µM
[14] = second compound 3.16 µM, first compound 0.01 µM
[15] = second compound 3.16 µM, first compound 0.0316 µM
[16] = second compound 3.16 µM, first compound 0.1 µM
[17] = second compound 10 µM, first compound 0.00316 µM
[18] = second compound 10 µM, first compound 0.01 µM
[19] = second compound 10 µM, first compound 0.0316 µM
[20] = second compound 10 µM, first compound 0.1 µM
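Note: spheroids exposed to agents for seven days before readout.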

CC[C@@]1(O)C(=O)OCc2c1cc1n(c2=O)Cc2cc3c(CN(C)C)c(O)ccc3nc2-1 + NC1CC1c1ccc(-c2cccc(O)c2)cc1
IC50 (second compound 0.1 µM): 11.6 nM
IC50 (second compound 0.316 µM): 9.2 nM
IC50 (second compound 1 µM): 9.32 nM
IC50 (second compound 3.16 µM): 11.3 nM
IC50 (second compound 10 µM): 13.9 nM
viability, T/C (second compound 0.1 µM, first compound 0.000316 µM): 114%
viability, T/C (second compound 0.1 µM, first compound 0.001 µM): 92.8%
viability, T/C [1]: 85%
viability, T/C [2]: 49.6%
viability, T/C [3]: 33.6%
viability, T/C [4]: 27.9%
viability, T/C (second compound 0.316 µM, first compound 0.000316 µM): 111%
viability, T/C (second compound 0.316 µM, first compound 0.001 µM): 108%
viability, T/C [5]: 83.8%
viability, T/C [6]: 45.6%
viability, T/C [7]: 35.6%
viability, T/C [8]: 23.2%
viability, T/C (second compound 1 µM, first compound 0.000316 µM): 82.6%
viability, T/C (second compound 1 µM, first compound 0.001 µM): 101%
viability, T/C [9]: 79.6%
viability, T/C [10]: 47.4%
viability, T/C [11]: 35.8%
viability, T/C [12]: 25.5%
viability, T/C (second compound 3.16 µM, first compound 0.000316 µM): 91.6%
viability, T/C (second compound 3.16 µM, first compound 0.001 µM): 85.8%
viability, T/C [13]: 87.1%
viability, T/C [14]: 52%
viability, T/C [15]: 31.9%
viability, T/C [16]: 27.9%
viability, T/C (second compound 10 µM, first compound 0.000316 µM): 86.9%
viability, T/C (second compound 10 µM, first compound 0.001 µM): 87.6%
viability, T/C [17]: 80.7%
viability, T/C [18]: 54.9%
viability, T/C [19]: 36.1%
viability, T/C [20]: 26.4%

COc1cc(C2c3cc4c(cc3C(OC3OC5COC(C)OC5C(O)C3O)C3COC(=O)C23)OCO4)cc(OC)c1O (stereo not given) + NC1CC1c1ccc(-c2cccc(O)c2)cc1
IC50 (second compound 0.1 µM): 166 nM
IC50 (second compound 0.316 µM): 135 nM
IC50 (second compound 1 µM): 110 nM
IC50 (second compound 3.16 µM): 97.6 nM
IC50 (second compound 10 µM): 248 nM
viability, T/C (second compound 0.1 µM, first compound 0.00949 µM): 83.5%
viability, T/C (second compound 0.1 µM, first compound 0.03 µM): 67.2%
viability, T/C (second compound 0.1 µM, first compound 0.0949 µM): 57.9%
viability, T/C (second compound 0.1 µM, first compound 0.3 µM): 41.4%
viability, T/C (second compound 0.1 µM, first compound 0.949 µM): 37%
viability, T/C (second compound 0.1 µM, first compound 3 µM): 27.8%
viability, T/C (second compound 0.316 µM, first compound 0.00949 µM): 75.4%
viability, T/C (second compound 0.316 µM, first compound 0.03 µM): 62.9%
viability, T/C (second compound 0.316 µM, first compound 0.0949 µM): 50.3%
viability, T/C (second compound 0.316 µM, first compound 0.3 µM): 45.9%
viability, T/C (second compound 0.316 µM, first compound 0.949 µM): 34.8%
viability, T/C (second compound 0.316 µM, first compound 3 µM): 25.2%
viability, T/C (second compound 1 µM, first compound 0.00949 µM): 75.7%
viability, T/C (second compound 1 µM, first compound 0.03 µM): 64%
viability, T/C (second compound 1 µM, first compound 0.0949 µM): 51.8%
viability, T/C (second compound 1 µM, first compound 0.3 µM): 38.3%
viability, T/C (second compound 1 µM, first compound 0.949 µM): 35.9%
viability, T/C (second compound 1 µM, first compound 3 µM): 26.1%
viability, T/C (second compound 3.16 µM, first compound 0.00949 µM): 77.3%
viability, T/C (second compound 3.16 µM, first compound 0.03 µM): 66.2%
viability, T/C (second compound 3.16 µM, first compound 0.0949 µM): 49.4%
viability, T/C (second compound 3.16 µM, first compound 0.3 µM): 39.5%
viability, T/C (second compound 3.16 µM, first compound 0.949 µM): 32.8%
viability, T/C (second compound 3.16 µM, first compound 3 µM): 30.5%
viability, T/C (second compound 10 µM, first compound 0.00949 µM): 73%
viability, T/C (second compound 10 µM, first compound 0.03 µM): 65.9%
viability, T/C (second compound 10 µM, first compound 0.0949 µM): 61.5%
viability, T/C (second compound 10 µM, first compound 0.3 µM): 46.3%
viability, T/C (second compound 10 µM, first compound 0.949 µM): 39%
viability, T/C (second compound 10 µM, first compound 3 µM): 31.1%

Nc1ncn(C2CC(O)C(CO)O2)c(=O)n1 (stereo not given) + NC1CC1c1ccc(-c2cccc(O)c2)cc1
IC50 (second compound 0.1 µM): > 1000 nM
IC50 (second compound 0.316 µM): > 1000 nM
IC50 (second compound 1 µM): > 1000 nM
IC50 (second compound 3.16 µM): > 1000 nM
IC50 (second compound 10 µM): > 1000 nM
viability, T/C [1]: 103%
viability, T/C [2]: 101%
viability, T/C [3]: 96.3%
viability, T/C [4]: 79.4%
viability, T/C (second compound 0.1 µM, first compound 0.316 µM): 83.6%
viability, T/C (second compound 0.1 µM, first compound 1 µM): 73.5%
viability, T/C [5]: 87.8%
viability, T/C [6]: 113%
viability, T/C [7]: 87.8%
viability, T/C [8]: 87.5%
viability, T/C (second compound 0.316 µM, first compound 0.316 µM): 85.4%
viability, T/C (second compound 0.316 µM, first compound 1 µM): 79.9%
viability, T/C [9]: 91.2%
viability, T/C [10]: 92%
viability, T/C [11]: 95.5%
viability, T/C [12]: 81.3%
viability, T/C (second compound 1 µM, first compound 0.316 µM): 86.5%
viability, T/C (second compound 1 µM, first compound 1 µM): 67.5%
viability, T/C [13]: 94%
viability, T/C [14]: 112%
viability, T/C [15]: 93.7%
viability, T/C [16]: 101%
viability, T/C (second compound 3.16 µM, first compound 0.316 µM): 93.8%
viability, T/C (second compound 3.16 µM, first compound 1 µM): 90%
viability, T/C [17]: 94.3%
viability, T/C [18]: 103%
viability, T/C [19]: 90.7%
viability, T/C [20]: 93.5%
viability, T/C (second compound 10 µM, first compound 0.316 µM): 84.8%
viability, T/C (second compound 10 µM, first compound 1 µM): 95.6%
